Assay results published in patent publication US20090221559A1 (priority 2005, published 2009).
Read-outs that look alike come from different tables or passages of the source.

What was measured:
[1] = biological target: T1, HCV NS5B polymerase (His-tagged, C-terminal 21 amino acid deleted NS5B, HC-J4) (Hepatitis C virus genotype 1b, UniProt O92972); assay: NS5b polymerase assay (biochemical RdRp assay, 3H-GTP incorporation, SPA beads); parameters: species or system HCV genotype 1b; conditions: 3H-GTP incorporation, 2 h at 25° C.
T1 construct: The cDNA encoding NS5B amino acid 1-570 (HC-J4, genotype 1b); His tag (His6, from pET-21b) (C); made in house; host or cells: E. coli BL21 (DE3)
In short: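 3H-GTP incorporation into newly made RNA was captured on SPA beads added in EDTA after 2 h at 25 °C. Compounds in DMSO met preformed enzyme–template complex (200 nM truncated His-NS5B, HC-J4 1b; biotin-oligo(rG13)/poly(rC)) for 15 min at RT, then 600 nM GTP, 5 mM MgCl2, Tris pH 7.5 started polymerization.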

[2] = system: HCV replicon RNA replication in Huh-7 luc/neo (Huh-Luc) cells; assay: HCV replicon assay (stable replicon cell reporter assay, luciferase read-out); format: cell-based, HCV type 1b
In short: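 Three-day compound exposure used Huh-Luc cells, which harbour an autonomously replicating genotype 1b NS3-NS5B replicon expressing luciferase and neo^R. Luciferase signal served as the replication read-out, and dose-response curves came from several concentrations per compound.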

[3] = NS5B Polymerase Assay IC50, 200 nM enzyme
[4] = Hepatitis C virus, Huh-7, 72 h, read-out: Replicon Assay EC50, Huh-Luc cells, three days incubation, luciferase activity
[5] = read-out: Replicon Assay EC50, Huh-Luc cells, three days incubation, luciferase activity
[6] = 200 nM enzyme, read-out: NS5B Polymerase Assay IC50
[7] = Huh-Luc cells, three days incubation, luciferase activity, read-out: Replicon Assay EC50

T1 sequence (O92972 2417-3000, looked up, stated change not applied): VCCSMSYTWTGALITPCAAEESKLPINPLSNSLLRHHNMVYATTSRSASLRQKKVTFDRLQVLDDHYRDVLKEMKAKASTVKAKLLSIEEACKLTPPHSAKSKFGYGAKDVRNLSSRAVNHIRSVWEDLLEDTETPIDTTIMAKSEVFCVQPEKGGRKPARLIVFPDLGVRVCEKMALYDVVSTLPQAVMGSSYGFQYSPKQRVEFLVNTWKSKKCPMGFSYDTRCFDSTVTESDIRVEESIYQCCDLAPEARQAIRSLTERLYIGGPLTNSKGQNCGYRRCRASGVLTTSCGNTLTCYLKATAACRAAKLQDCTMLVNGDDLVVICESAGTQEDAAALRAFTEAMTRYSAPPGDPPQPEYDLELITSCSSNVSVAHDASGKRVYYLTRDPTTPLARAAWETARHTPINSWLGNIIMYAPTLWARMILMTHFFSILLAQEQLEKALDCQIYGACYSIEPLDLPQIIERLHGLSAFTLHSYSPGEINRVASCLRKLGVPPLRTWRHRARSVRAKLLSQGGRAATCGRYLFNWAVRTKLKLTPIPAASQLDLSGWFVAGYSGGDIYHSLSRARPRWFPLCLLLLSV

CCCCOc1ccc(C2C3=C(CC(C)(C)CC3=O)Nc3ccccc3N2C(=O)C(C)C)cc1 (stereo not drawn) [compound 14]
IC50 [1, 3]: > 33.3 µM
EC50 [2, 4]: 10.6 µM

COc1c(Cl)cc(Cl)cc1C1C2=C(CC(C)(C)CC2=O)Nc2ccccc2N1C(=O)Cc1ccccc1 (stereo not drawn) [compound 15]
IC50 [1, 3]: > 42.7 µM
EC50 [2, 4]: 3.09 µM

CC1(C)CC(=O)C2=C(C1)Nc1ccccc1N(C(=O)Cc1ccccc1)C2c1c(Cl)cccc1Cl (stereo not drawn) [compound 16]
IC50 [1, 3]: > 42.7 µM
EC50 [2, 4]: 10.6 µM

CCCCC(=O)N1c2ccccc2NC2=C(C(=O)CC(C)(C)C2)C1c1ccc(Cl)cc1Cl (stereo not drawn) [compound 17]
IC50 [1, 3]: > 42.7 µM
EC50 [2, 4]: 6.59 µM

CC(=O)N1c2ccccc2NC2=C(C(=O)CC(C)(C)C2)C1c1ccccc1OCc1ccccc1 (stereo not drawn) [compound 19]
IC50 [1, 3]: > 42.7 µM
EC50 [2, 5]: > 32 µM

CC1(C)CC(=O)C2=C(C1)Nc1ccccc1N(C(=O)Cc1ccccc1)C2c1ccc(Cl)cc1 (stereo not drawn) [compound 20]
IC50 [1, 3]: > 42.6 µM
EC50 [2, 4]: 6.58 µM

COc1ccc(C2C3=C(CC(C)(C)CC3=O)Nc3ccccc3N2C(=O)CSc2nc3ccccc3s2)cc1 (stereo not drawn) [compound 21]
IC50 [1, 3]: > 42.7 µM
EC50 [2, 4]: 14.2 µM

COc1ccc(OC)c(C2C3=C(CC(C)(C)CC3=O)Nc3ccccc3N2C(=O)Cc2ccccc2)c1 (stereo not drawn) [compound 22]
IC50 [1, 3]: > 42.6 µM
EC50 [2, 4]: 10.8 µM

CC(C)C(=O)N1c2ccccc2NC2=C(C(=O)CC(C)(C)C2)C1c1ccccc1F (stereo not drawn) [compound 23]
IC50 [1, 3]: > 42.7 µM
EC50 [2, 4]: 20.3 µM

CC(=O)N1c2ccccc2NC2=C(C(=O)CC(C)(C)C2)C1c1c(F)cccc1Cl (stereo not drawn) [compound 24]
IC50 [1, 3]: > 42.7 µM
EC50 [2, 4]: 13 µM

CC1(C)CC(=O)C2=C(C1)Nc1ccccc1N(C(=O)C(F)(F)F)C2c1cccc(Cl)c1Cl (stereo not drawn) [compound 25]
IC50 [1, 3]: > 42.7 µM
EC50 [2, 4]: 24.6 µM

CC1(C)CC(=O)C2=C(C1)Nc1ccccc1N(C(=O)c1ccccc1F)C2c1ccccc1OCc1ccccc1 (stereo not drawn) [compound 27]
IC50 [1, 3]: > 42.7 µM
EC50 [2, 4]: 20.7 µM

CC(C)C(=O)N1c2ccccc2NC2=C(C(=O)CC(C)(C)C2)C1c1ccc(Cl)cc1Cl (stereo not drawn) [compound 28]
IC50 [1, 3]: > 42.7 µM
EC50 [2, 4]: 5.52 µM

CC(=O)N1c2ccccc2NC2=C(C(=O)CC(C)(C)C2)C1c1cccc(Cl)c1Cl (stereo not drawn) [compound 29]
IC50 [1, 3]: > 42.7 µM
EC50 [2, 4]: 6.79 µM

COc1ccc(C2C3=C(CC(C)(C)CC3=O)Nc3ccccc3N2C(=O)CC(C)C)c(OC)c1 (stereo not drawn) [compound 30]
IC50 [1, 3]: > 42.6 µM
EC50 [2, 4]: 23 µM

CC1(C)CC(=O)C2=C(C1)Nc1ccccc1N(C(=O)Cc1ccccc1)C2c1cccc(Cl)c1 (stereo not drawn) [compound 31]
IC50 [1, 3]: > 42.7 µM
EC50 [2, 4]: 6.36 µM

COc1ccc(C2C3=C(CC(C)(C)CC3=O)Nc3ccccc3N2C(=O)c2ccc(F)cc2)cc1 (stereo not drawn) [compound 33]
IC50 [1, 3]: > 42.6 µM
EC50 [2, 4]: 24.7 µM

COc1cccc(C2C3=C(CC(C)(C)CC3=O)Nc3ccccc3N2C(=O)Cc2ccc(Cl)cc2)c1 (stereo not drawn) [compound 34]
IC50 [1, 3]: > 42.7 µM
EC50 [2, 4]: 6.81 µM

CC1(C)CC(=O)C2=C(C1)Nc1ccccc1N(C(=O)c1ccccc1)C2c1c(F)cccc1Cl (stereo not drawn) [compound 37]
IC50 [1, 3]: > 42.7 µM
EC50 [2, 4]: 6.93 µM

CC1(C)CC(=O)C2=C(C1)Nc1ccccc1N(C(=O)Cc1ccccc1)C2c1cccc(O)c1 (stereo not drawn) [compound 39]
IC50 [1, 3]: > 42.7 µM
EC50 [2, 4]: 7.42 µM

CCC(=O)N1c2ccccc2NC2=C(C(=O)CC(C)(C)C2)C1c1cccc(Cl)c1Cl (stereo not drawn) [compound 40]
IC50 [1, 3]: > 42.7 µM
EC50 [2, 4]: > 24.7 µM

COc1ccc(C2C3=C(CC(C)(C)CC3=O)Nc3ccccc3N2C(=O)CC(C)C)cc1 (stereo not drawn) [compound 41]
IC50 [1, 3]: > 42.7 µM
EC50 [2, 4]: 8.44 µM

CC(=O)N1c2ccccc2NC2=C(C(=O)CC(C)(C)C2)C1c1ccc(OCc2ccccc2)cc1 (stereo not drawn) [compound 42]
IC50 [1, 6]: 5.68 µM
EC50 [2, 7]: 6.39 µM

CC(C)CC(=O)N1c2ccccc2NC2=C(C(=O)CC(C)(C)C2)C1c1c(F)cccc1Cl (stereo not drawn) [compound 43]
IC50 [1, 3]: > 42.7 µM
EC50 [2, 4]: 9.17 µM

CC(=O)N1c2ccccc2NC2=C(C(=O)CC(C)(C)C2)C1c1ccccc1OCc1ccccc1 (stereo not drawn) [compound 44]
IC50 [1, 3]: > 42.7 µM
EC50 [2, 5]: 9.54 µM

CCC(=O)N1c2ccccc2NC2=C(C(=O)CC(C)(C)C2)C1c1c(Cl)cccc1Cl (stereo not drawn) [compound 46]
IC50 [1, 3]: > 42.7 µM
EC50 [2, 4]: 11.1 µM

CC1(C)CC(=O)C2=C(C1)Nc1ccccc1N(C(=O)C(F)(F)F)C2c1cccc([N+](=O)[O-])c1 (stereo not drawn) [compound 47]
IC50 [1, 3]: > 42.7 µM
EC50 [2, 4]: 16.4 µM

COc1ccc(C2C3=C(CC(C)(C)CC3=O)Nc3ccccc3N2C(C)=O)cc1OCc1ccccc1 (stereo not drawn) [compound 48]
IC50 [1, 6]: 15.9 µM
EC50 [2, 7]: 16.7 µM

CCC(=O)N1c2ccccc2NC2=C(C(=O)CC(C)(C)C2)C1c1ccc(F)cc1 (stereo not drawn) [compound 49]
IC50 [1, 3]: > 42.7 µM
EC50 [2, 4]: 11.2 µM

CC(=O)N1c2ccccc2NC2=C(C(=O)CC(C)(C)C2)C1c1c(Cl)cccc1Cl (stereo not drawn) [compound 50]
IC50 [1, 3]: > 42.7 µM
EC50 [2, 4]: > 32 µM

CC1(C)CC(=O)C2=C(C1)Nc1ccccc1N(C(=O)C(F)(F)F)C2c1ccc(OCc2ccccc2)cc1 (stereo not drawn) [compound 52]
IC50 [1, 3]: > 42.7 µM
EC50 [2, 4]: 7.44 µM

CC1(C)CC(=O)C2=C(C1)Nc1ccccc1N(C(=O)C1CC1)C2c1ccc(Cl)cc1Cl (stereo not drawn) [compound 53]
IC50 [1, 3]: 19.7 µM
EC50 [2, 4]: > 32 µM

CCC(=O)N1c2ccccc2NC2=C(C(=O)CC(C)(C)C2)C1c1ccc(Cl)cc1 (stereo not drawn) [compound 54]
IC50 [1, 3]: > 42.7 µM
EC50 [2, 4]: 22.3 µM

CCC(=O)N1c2ccccc2NC2=C(C(=O)CC(C)(C)C2)C1c1ccc(C(F)(F)F)cc1 (stereo not drawn) [compound 55]
IC50 [1, 3]: 33.3 µM
EC50 [2, 4]: > 32 µM

CC1(C)CC(=O)C2=C(C1)Nc1ccccc1N(C(=O)C(F)(F)F)C2c1ccc(Cl)cc1 (stereo not drawn) [compound 56]
IC50 [1, 3]: > 42.7 µM
EC50 [2, 4]: 25.3 µM

CCOc1ccc(C2C3=C(CC(C)(C)CC3=O)Nc3ccccc3N2C(C)=O)cc1 (stereo not drawn) [compound 57]
IC50 [1, 3]: > 42.7 µM
EC50 [2, 4]: 4.47 µM

COc1ccc(C2C3=C(CC(C)(C)CC3=O)Nc3ccccc3N2C(=O)C(F)(F)F)c(OC)c1 (stereo not drawn) [compound 58]
IC50 [1, 3]: > 42.7 µM
EC50 [2, 4]: 8.78 µM

COc1ccc(C2C3=C(CC(C)(C)CC3=O)Nc3ccccc3N2C(C)=O)cc1COc1ccc(F)cc1 (stereo not drawn) [compound 59]
IC50 [1, 3]: > 42.7 µM
EC50 [2, 4]: 5.74 µM

CCC(=O)N1c2ccccc2NC2=C(C(=O)CC(C)(C)C2)C1c1cc(OC)ccc1OC (stereo not drawn) [compound 60]
IC50 [1, 3]: > 42.7 µM
EC50 [2, 4]: 17.9 µM

CCC(=O)N1c2ccccc2NC2=C(C(=O)CC(C)(C)C2)C1c1ccccc1OC(C)CC (stereo not drawn) [compound 61]
IC50 [1, 3]: > 42.7 µM
EC50 [2, 4]: 9.45 µM

COc1c(Cl)cc(Cl)cc1C1C2=C(CC(C)(C)CC2=O)Nc2ccccc2N1C(=O)C(C)C (stereo not drawn) [compound 62]
IC50 [1, 3]: > 42.7 µM
EC50 [2, 4]: 22.6 µM

CCCOc1ccccc1C1C2=C(CC(C)(C)CC2=O)Nc2ccccc2N1C(=O)CC (stereo not drawn) [compound 63]
IC50 [1, 3]: > 42.7 µM
EC50 [2, 4]: 5 µM

CCOc1cc(C2C3=C(CC(C)(C)CC3=O)Nc3ccccc3N2C(=O)c2ccccc2)ccc1O (stereo not drawn) [compound 64]
IC50 [1, 3]: > 42.7 µM
EC50 [2, 4]: 22.9 µM

CCC(C)Oc1ccccc1C1C2=C(CC(C)(C)CC2=O)Nc2ccccc2N1C(=O)C(F)(F)F (stereo not drawn) [compound 65]
IC50 [1, 3]: > 42.7 µM
EC50 [2, 4]: 2.48 µM

CCCCC(=O)N1c2ccccc2NC2=C(C(=O)CC(C)(C)C2)C1c1ccccc1Cl (stereo not drawn) [compound 66]
IC50 [1, 3]: > 42.7 µM
EC50 [2, 4]: 23 µM

CCCCCOc1ccc(C2C3=C(CC(C)(C)CC3=O)Nc3ccccc3N2C(=O)c2ccccc2F)cc1 (stereo not drawn) [compound 67]
IC50 [1, 3]: > 42.7 µM
EC50 [2, 4]: 5.67 µM

COc1ccc(C2C3=C(CC(C)(C)CC3=O)Nc3ccccc3N2C(=O)c2ccc(Cl)cc2)cc1OC (stereo not drawn) [compound 68]
IC50 [1, 3]: > 42.7 µM
EC50 [2, 4]: 23.1 µM

CC1(C)CC(=O)C2=C(C1)Nc1ccccc1N(C(=O)Cc1ccccc1)C2c1c(F)cccc1Cl (stereo not drawn) [compound 69]
IC50 [1, 3]: > 42.7 µM
EC50 [2, 4]: 4.58 µM

CC1(C)CC(=O)C2=C(C1)Nc1ccccc1N(C(=O)c1ccccc1)C2c1ccccc1Cl (stereo not drawn) [compound 70]
IC50 [1, 3]: > 42.7 µM
EC50 [2, 4]: 14.6 µM

COc1ccc(OC)c(C2C3=C(CC(C)(C)CC3=O)Nc3ccccc3N2C(=O)c2ccccc2)c1 (stereo not drawn) [compound 72]
IC50 [1, 3]: > 42.7 µM
EC50 [2, 4]: 23.6 µM

COc1c(Cl)cc(Cl)cc1C1C2=C(CC(C)(C)CC2=O)Nc2ccccc2N1C(C)=O (stereo not drawn) [compound 73]
IC50 [1, 3]: > 42.7 µM
EC50 [2, 4]: 19.9 µM

CC1(C)CC(=O)C2=C(C1)Nc1ccccc1N(C(=O)c1ccccc1)C2c1ccc(Br)cc1 (stereo not drawn) [compound 74]
IC50 [1, 3]: > 42.7 µM
EC50 [2, 4]: > 26.7 µM

CCC(=O)N1c2ccccc2NC2=C(C(=O)CC(C)(C)C2)C1c1ccc(OC)cc1OC (stereo not drawn) [compound 75]
IC50 [1, 3]: > 42.7 µM
EC50 [2, 4]: 20.5 µM

CN(C)c1ccc(C2C3=C(CC(C)(C)CC3=O)Nc3ccccc3N2C(=O)Nc2ccc(Cl)c(Cl)c2)cc1 (stereo not drawn) [compound 76]
IC50 [1, 3]: > 33.3 µM
EC50 [2, 4]: 6.27 µM

CC1(C)CC(=O)C2=C(C1)Nc1ccccc1N(C(=O)c1ccccc1)C2c1ccc(F)cc1 (stereo not drawn) [compound 77]
IC50 [1, 3]: > 42.7 µM
EC50 [2, 4]: 21.2 µM

CC(C)CC(=O)N1c2ccccc2NC2=C(C(=O)CC(C)(C)C2)C1c1ccc(Cl)c(Cl)c1 (stereo not drawn) [compound 78]
IC50 [1, 3]: > 33.3 µM
EC50 [2, 4]: 22.2 µM

CCCCOc1cccc(C2C3=C(CC(C)(C)CC3=O)Nc3ccccc3N2C(C)=O)c1 (stereo not drawn) [compound 79]
IC50 [1, 3]: > 42.7 µM
EC50 [2, 4]: 31.3 µM
